This is an account of results in patent publication US7130746B2, “Computer systems and computer programs for determining protein activity levels using gene expression profiles” (priority 1998, dated 2006).

Data set [1] deals with wild type yeast cells. The following applies: 10 micrograms/ml doxycycline (Gari et al., 1997); cited from earlier work.
Data set [2] concerns yeast Saccharomyces cerevisiae. As to the kind of experiment: Yeast growth under methotrexate titration. It counts as cell-based. The following applies: 100 μM methotrexate titration.
Data set [3] deals with yeast gene YOL031C. Briefly: Transcript array gene expression response to methotrexate, Hill function fit. It counts as cell-based, Saccharomyces cerevisiae. The text has this: FIG. 2 illustrates an example of perturbation response profiles measured at discrete protein activity levels of dihydrofolate reductase. Specifically, the figure illustrates mRNA expression levels of 30 genes of the yeast Saccharomyces cerevisiae that, of the 6000 genes in the genome of this yeast, had the largest expression changes in response to six different titrations of the drug methotrexate, which is known to act primarily by disrupting the activity of dihydrofolate reductase. These gene expression level measurements were made with gene transcript arrays, as described in Section 5.5. The perturbation response profiles in FIG. 2 can be interpolated according to the methods disclosed in Section 5.4, below, to provide perturbation response profiles for any activity level of dihydrofolate reductase, i.e., perturbation response curves.
In model fitting, the perturbation responses are interpolated by approximating each by a single parameterized function. An exemplary model-fitting function appropriate for approximating transcriptional state data is the Hill function, which has adjustable parameters a, u0 and n.
[formula] the adjustable parameters are selected independently for each cellular constituent of the perturbation response. Preferably, the adjustable parameters are selected so that for each cellular constituent the sum of the squares of the distances H(pl) from Rk(pl) is minimized. This preferable parameter adjustment method is known in the art as a least squares fit of H( ) to Rk( ). Other possible model functions are based on polynomial fitting, for example by various known classes of polynomials.
Model fitting with a Hill function is illustrated with respect to FIGS. 2 and 4. As discussed, FIG. 2 illustrates an example of perturbation by methotrexate and identified by measurement. This figure illustrates the RNA expression levels of 30 genes of the yeast S. cerevisiae that, of the approximately 6000 genes in the genome of this organism, had the largest expression changes in response to six different exposure levels of methotrexate. […]

On to `C[C@H]1c2cccc(O)c2C(=O)C2=C(O)[C@]3(O)C(=O)C(C(N)=O)=C(O)[C@@H](N(C)C)[C@@H]3[C@@H](O)[C@@H]21` [doxycycline], for which the “effect on growth rate” value in data set [1] is “no significant effect”.
With `CN(Cc1cnc2nc(N)nc(N)c2n1)c1ccc(C(=O)N[C@@H](CCC(=O)O)C(=O)O)cc1` [methotrexate], in data set [2], the growth defect worked out at 50%. Moreover, the “Hill function parameter n” value in data set [3] (least squares fit of YOL031C expression response) is 2. For the same compound, the “Hill function parameter a” value in data set [3] (least squares fit of YOL031C expression response (log10 expression ratio)) is reported as −0.61. Moreover, in data set [3] (least squares fit of YOL031C expression response, methotrexate exposures 3-200 μM), the “Hill function parameter log10(u0)” value was found to be 1.26.
